In the Deep4Chem optical property database one finds photoluminescence quantum yield data, which are given here for 45 compounds.

The nature of the series: photoluminescence quantum yield (fraction); solvent given as SMILES.
[1] abbreviates: in c1ccc2c(c1)c1ccccc1n2-c1ccc(-c2ccc(-n3c4ccccc4c4ccccc43)cc2)cc1.

For the compound `C[n+]1ccn(CCCCc2ccc3c(c2)c2ccccc2n3-c2cc(C#N)c(C#N)cc2-n2c3ccccc3c3cc(CCCCn4cc[n+](C)c4)ccc32)c1`, the photoluminescence quantum yield (in CC#N) is 0.026.

Turning to `COc1ccc(N(c2ccc(OC)cc2)c2cc(N(c3ccc(OC)cc3)c3ccc(OC)cc3)c3ccc4cc(C(C)(C)C)cc5ccc2c3c54)cc1`, the photoluminescence quantum yield (in ClCCl) was found to be 0.6.

For `CCCCCCOc1cc(/C=C/c2cc(OCCCCCC)c(/C=C/c3cc(OCCCCCC)c(C=C(C#N)C#N)cc3OCCCCCC)cc2OCCCCCC)c(OCCCCCC)cc1C=C(C#N)C#N`, the photoluminescence quantum yield (in ClCCl) came out at 0.13.

`COc1ccc(C2=C(c3ccc(OC)cc3)C(C)(C)c3sccc32)cc1`: the photoluminescence quantum yield (in C1CCCCC1) is 0.02.

With `COc1ccc(-c2cc(B(c3c(C)cc(C)cc3C)c3c(C)cc(C)cc3C)c(-c3sc(-c4ccc(OC)cc4)cc3P(=O)(c3ccccc3)c3ccccc3)s2)cc1`, the photoluminescence quantum yield (in CO) was 0.55.

`FC(F)(F)c1ccc(C2=CC3=c4cc(-c5ccc(C(F)(F)F)cc5)c5nc(C(F)(F)C(F)(F)C(F)(F)F)nc6c(-c7ccc(C(F)(F)F)cc7)cc(c4c65)C4=CC(c5ccc(C(F)(F)F)cc5)=C5N=C(C(F)(F)C(F)(F)C(F)(F)F)N=C2C5C43)cc1` (stereo unspecified): the photoluminescence quantum yield (in C1CCOC1) stood at 0.96.

Turning to `CC1(C)c2ccccc2-c2ccc(N3c4ccc(-c5ccc(/C=C6\C(=O)c7ccc(C(=O)O)cc7C6=O)s5)cc4C4CCCC43)cc21` (stereo unspecified), the photoluminescence quantum yield (in ClC(Cl)Cl) was found to be 0.18.

In the case of `CC[N+]1(CC)CN2C(=N1)C(C(=O)[O-])=Cc1ccccc12`, the photoluminescence quantum yield was 0.05 (in CN(C)C=O) and 0.736 (in O).

`CCOC(=O)c1ccc2c(c1)[nH]c1c3ccc(C(=O)OCC)cc3sc21` gave a photoluminescence quantum yield (in CCCO) of 0.45.

Consider `O=C1C(=c2c(=O)c3c4ccccc4cc4cc5ccccc5c2c43)C(=O)c2ccccc21`, for which the photoluminescence quantum yield is, setting by setting: (in C1CCOC1) 0.235; (in CC#N) 0.09; (in CCCCCC) 0.292; (in Cc1ccccc1) 0.268; (in ClCCl) 0.193.

`COc1ccc(/C=C/C=C/C=C/c2ccc([N+](=O)[O-])cc2)cc1` returned a photoluminescence quantum yield (in C1CCOC1) of 0.44; a photoluminescence quantum yield (in C1COCCO1) of 0.57; a photoluminescence quantum yield (in CC1CCCCC1) of 0.21; a photoluminescence quantum yield (in CC#N) of 0.013; a photoluminescence quantum yield (in CO) of 0.002; a photoluminescence quantum yield (in CS(C)=O) of 0.03. Moreover, the photoluminescence quantum yield by setting is: (in Cc1ccccc1) 0.63; (in ClC(Cl)Cl) 0.14; (in ClCCl) 0.074.

In turn, `Cc1sc(Cl)cc1-c1nc(-c2ccccc2)[nH]c1-c1cc(Cl)sc1C` displayed a photoluminescence quantum yield (in CC#N) of 0.017.

For `COc1cc2c(cc1/C=C/C1=CC(=C(C#N)C#N)CC(C)(C)C1)c1ccccc1n2C`, the photoluminescence quantum yield worked out at 0.013 (in C1CCOC1); 0.031 (in CC#N); 0.021 (in CCO); 0.009 (in CCOC(C)=O); 0.038 (in CN(C)C=O); 0.059 (in CS(C)=O). In addition, the photoluminescence quantum yield (in Cc1ccccc1) was determined as 0.007, the photoluminescence quantum yield (in ClC(Cl)Cl) came to 0.018 and the photoluminescence quantum yield (in ClCCl) was determined as 0.022.

The compound `F[B-]1(F)n2c(Cl)c(Cl)c(Br)c2C(Oc2ccccc2)=C2C(Br)=C(Cl)C(Cl)=[N+]21` showed a photoluminescence quantum yield (in ClCCl) of 0.05.

As for `COc1ccc(C2=Cc3ccccc3P2(=O)c2ccccc2)cc1` (stereo unspecified), the photoluminescence quantum yield is, setting by setting: (in C1CCOC1) 0.41; (in ClCCl) 0.82.

Turning to `CC(C)(C)c1ccc2c(c1)c1cc(C(C)(C)C)ccc1n2-c1ccc2c(c1)C(=O)c1ccc(-n3c4ccc(C(C)(C)C)cc4c4cc(C(C)(C)C)ccc43)cc1C2=O`, the photoluminescence quantum yield was 0.15 (in Cc1ccccc1) and 0.52 under setting [1].

Under “in ClCCl”, `COc1ccc(C#Cc2ccc3nc4ccc(C#Cc5ccc(OC)cc5)cn4c(=O)c3c2)cc1` yielded a photoluminescence quantum yield of 0.52.

For `CC(C)(C)c1ccc2c(c1)[nH]c1c3[nH]c4cc(C(C)(C)C)ccc4c3c3nsnc3c21`, the photoluminescence quantum yield is, setting by setting: (in CN(C)C=O) 0.09; (in Cc1ccccc1) 0.11; (in ClCCl) 0.12.

As to `Cc1ccc2nc3[nH]c(=O)[nH]c(=O)c3nc2c1C`, the photoluminescence quantum yield (in CC#N) worked out at 0.041.

In the case of `C[Si]1(C)C2=CC(=[N+]3CCC3)C=C(F)C2=Nc2c(F)cc(N3CCC3)cc21`, under “in CCO”, the photoluminescence quantum yield was found to be 0.11.

The compound `CC1(C)CC(NCc2ccc3ccc4cccc5ccc2c3c45)CC(C)(C)N1[O]` gave a photoluminescence quantum yield (in C1CCCCC1) of 0.07, a photoluminescence quantum yield (in CC#N) of 0.03, a photoluminescence quantum yield (in CO) of 0.04 and a photoluminescence quantum yield (in ClC(Cl)Cl) of 0.02.

In the case of `CCn1c2ccccc2c2ccc(-c3ccc(OC)cc3)cc21`, the photoluminescence quantum yield (in C1CCCCC1) came out at 0.22.

In turn, `Cc1cc2nc3c(=O)[nH]c(=O)n(C)c3nc2cc1C` gave a photoluminescence quantum yield (in CC#N) of 0.027.

Take `CN(C)c1ccc(/C=C/c2cc(/C=C/c3ccc(N(C)C)cc3)nc(/C=C/c3ccc(N(c4ccccc4)c4ccccc4)cc3)n2)cc1`: the photoluminescence quantum yield (in ClCCl) turned out to be 0.59.

`CCCC1=Cc2nc1ccc1[nH]c(cc1CCC)c1nc(c(OCc3ccc(C(=O)O)cc3)cc3[nH]c2cc3CCC)C(CCC)=C1`: the photoluminescence quantum yield (in Cc1ccccc1) was found to be 0.21.

For the compound `COc1cc2cc(OC)c(C#Cc3ccc([N+](=O)[O-])cc3)cc2cc1C#Cc1ccc([N+](=O)[O-])cc1`, the photoluminescence quantum yield worked out at 0.009 (in C1CCOC1), 0.053 (in ClC(Cl)Cl) and 0.019 (in ClCCl).

Consider `CC(C)(C)c1ccc2c(c1)c1cc(C(C)(C)C)ccc1n2-c1cc(N2c3ccccc3C(c3ccccc3)(c3ccccc3)c3ccccc32)cc(-n2c3ccc(C(C)(C)C)cc3c3cc(C(C)(C)C)ccc32)c1C#N`, for which the photoluminescence quantum yield (in Cc1ccccc1) was determined as 0.2.

The compound `COc1ccc(OC)cc1` gave a photoluminescence quantum yield (in C1CCCCC1) of 0.22.

Take `O=C([O-])c1c(Cl)c(Cl)c(Cl)c(Cl)c1-c1c2cc(Cl)c(=O)c(Cl)c-2oc2c(Cl)c(O)c(Cl)cc12`: the photoluminescence quantum yield (in O) was found to be 0.628.

As to `C[Si](C)(C)[Si](C)(C)c1cccc2cc3ccccc3cc12`, the photoluminescence quantum yield is 0.38 (in C1CCCCC1) and 0.16 (in CC#N).

Regarding `CC(C)[Si](C#Cc1ccc(C#C[Si](C(C)C)(C(C)C)C(C)C)c2nc3c(ccc4cc5ccccc5cc43)nc12)(C(C)C)C(C)C`, the photoluminescence quantum yield (in CCCCCC) was 0.37.

As for `CC1(C)CCc2c(c3ccccc3c3nc4c5c(c6ccccc6c4nc23)OC(C)(C)CC5)O1`, the photoluminescence quantum yield worked out at 0.38 (in C1CCCCC1); 0.34 (in C1CCOC1); 0.26 (in C1COCCO1); 0.61 (in CC#N); 0.53 (in CC(C)O); 0.31 (in CCCCCC). The photoluminescence quantum yield reads like this: (in CN(C)C=O) 0.57; (in CO) 0.62; (in ClC(Cl)Cl) 0.43; (in c1ccccc1) 0.42.

Compound `C(=C\c1ccc(-n2c3ccccc3c3ccccc32)cc1)/c1ccc(-c2ccc(/C=C/c3ccc(-n4c5ccccc5c5ccccc54)cc3)cc2)cc1` came in with a photoluminescence quantum yield (in Cc1ccccc1) of 0.89 and a photoluminescence quantum yield under setting [1] of 0.98.

In turn, `CC1=CC(c2ccc(N(C)C)cc2)=[N+]2C1=Nc1c(C)cc(-c3ccc(N(C)C)cc3)n1[B-]2(F)F` returned a photoluminescence quantum yield (in C1CCOC1) of 0.13, a photoluminescence quantum yield (in CS(C)=O) of 0.01 and a photoluminescence quantum yield (in Cc1ccccc1) of 0.21.

Under “in CC#N”, `C(=C\c1cc[n+](Cc2ccccc2)cc1)/c1cc[n+](Cc2ccccc2)cc1` came in with a photoluminescence quantum yield of 0.0006.

Compound `Cc1ccc2c3ccc(C)cc3c3cc4c(C)cc(=O)oc4cc3c2c1` displayed a photoluminescence quantum yield (in ClC(Cl)Cl) of 0.11.

Consider `C1=C/C2=C(\c3ccccc3)c3c[nH]c(c3)/C(c3ccccc3)=C3/C=CC(=N3)/C(c3ccccc3)=c3/cc/c([nH]3)=C(\c3ccccc3)C1=N2`, for which the photoluminescence quantum yield (in CC(=O)N(C)C) was determined as 0.046.

On to `CCN(CC)c1ccc2c(C)cc(=O)oc2c1`, for which the photoluminescence quantum yield reads like this: (in CCCCCCCCO) 0.68; (in CCCCCCO) 0.66; (in CCCCO) 0.61; (in CCCO) 0.62; (in CCO) 0.41; (in CO) 0.26. This compound showed a photoluminescence quantum yield (in O) of 0.041.

With `COc1c2ccccc2c(OC)c2c1c1ccc(C(F)(F)F)cc1n2C`, the photoluminescence quantum yield amounted to 0.35 (in C1CCCCC1), 0.39 (in CC#N), 0.26 (in CO) and 0.36 (in ClCCl).

For `Oc1ccc2ccccc2c1C1Nc2cccc3cccc(c23)N1`, the photoluminescence quantum yield is 0.03 (in CC#N), 0.03 (in CO), 0.14 (in CS(C)=O) and 0.33 (in Cc1ccccc1).

`CC(C)[Si](C#Cc1ccc(C#C[Si](C(C)C)(C(C)C)C(C)C)c2nc3c(ccc4ccccc43)nc12)(C(C)C)C(C)C` returned a photoluminescence quantum yield (in CCCCCC) of 0.05.

For `F[B-]1(F)n2c(Oc3ccccc3)c(Cl)c3c2C(=C2C(Br)=C(Cl)C(Oc4ccccc4)=[N+]21)Oc1ccccc1-3`, under “in ClCCl”, the photoluminescence quantum yield was determined as 0.99.

`COc1ccc(-c2cc3c(ccc4sc5ccc6sc(-c7ccc(C#N)cc7)cc6c5c43)s2)cc1`: where the note is “in ClCCl”, the photoluminescence quantum yield came to 0.09.

Take `CC(=O)c1ccc2ccc3cccc4ccc1c2c34`: the photoluminescence quantum yield by setting is: (in C1CCOC1) 0.002; (in CC#N) 0.002; (in CCCCCC) 0.002; (in CCO) 0.012; (in CN(C)C=O) 0.002; (in CO) 0.014. The photoluminescence quantum yield is, setting by setting: (in Cc1ccccc1) 0.003; (in ClCCl) 0.002.

With `CC1=CC(C)=[N+]2C1=Cc1c3ccccc3c(C#Cc3ccsc3)n1[B-]2(F)F`, the photoluminescence quantum yield runs as follows: (in CCCCCC) 1; (in CCCCCCCCO) 0.72; (in CCOC(C)=O) 0.81; (in CN(C)C=O) 0.67; (in ClCCl) 0.8.
